# Calls of active or inactive are those of the source. No cut-off for these calls is given here.
# Experiments:
# Hep 3B2 [1] = assay: Induction of cell cycle arrest in human Hep3B cells assessed as accumulation at G2/M phase at 1 uM incubated for 48 hrs by flow cytometry analysis (reference value: 8.59 %); format: functional
# Hep 3B2 [2] = assay: Induction of apoptosis in human Hep3B cells assessed as upregulation of cleaved caspase-8 expression measured after 48 hrs by Western blot analysis; format: functional, cell-based; conditions: dose 5-20 µM, DDE = dose-dependent effect
# hERG [3] = assay: Selectivity ratio of IC50 for inhibition of hERG by automated patch clamp analysis to IC50 for antiproliferative activity against human BEL-7402/5-FU cells assessed as reduction in cell viability incubated for 72 hrs by MTT assay; format: toxicity, cell-based; conditions: read-out: Ratio IC50
# Hep 3B2 [4] = assay: Induction of cell cycle arrest in human Hep3B cells assessed as accumulation at G2/M phase at 10 uM incubated for 48 hrs by flow cytometry analysis (reference value: 8.59 %); format: functional
# Hep 3B2 [5] = assay: Induction of apoptosis in human Hep3B cells assessed as late apoptotic cells at 2.5 uM measured after 48 hrs by Annexin V/FITC-PI staining based flow cytometry assay (reference value: 3.14%); format: functional
# Hep 3B2 [6] = assay: Downregulation of AKT expression in human Hep3B cells measured after 24 hrs by western blot analysis; format: functional, cell-based; conditions: dose 0.5-5 µM, DDE = dose-dependent effect
# Hep 3B2 [7] = assay: Induction of cell cycle arrest in human Hep3B cells assessed as accumulation at G2/M phase at 5 uM incubated for 48 hrs by flow cytometry analysis (reference value: 8.59 %); format: functional
# hERG [8] = assay: Selectivity ratio of IC50 for inhibition of hERG by automated patch clamp analysis to IC50 for antiproliferative activity against human SNU-387 cells assessed as reduction in cell viability incubated for 72 hrs by MTT assay; format: toxicity, cell-based; conditions: read-out: Ratio IC50
# Hep 3B2 [9] = assay: Induction of apoptosis in human Hep3B cells assessed as viable cells at 2.5 uM measured after 48 hrs by Annexin V/FITC-PI staining based flow cytometry assay (reference value: 90.09%); format: functional; conditions: read-out: Activity
# Hep 3B2 [10] = assay: Induction of apoptosis in human Hep3B cells assessed as necrotic cells at 1 uM measured after 48 hrs by Annexin V/FITC-PI staining based flow cytometry assay (reference value: 0.12%); format: functional
# hERG [11] = assay: Selectivity ratio of IC50 for inhibition of hERG by automated patch clamp analysis to IC50 for antiproliferative activity against human SMMC-7721 cells assessed as reduction in cell viability incubated for 72 hrs by MTT assay; format: toxicity, cell-based; conditions: read-out: Ratio IC50
# Hep 3B2 [12] = assay: Induction of apoptosis in human Hep3B cells assessed as viable cells at 5 uM measured after 48 hrs by Annexin V/FITC-PI staining based flow cytometry assay (reference value: 90.09%); format: functional; conditions: read-out: Activity
# Hep 3B2 [13] = assay: Induction of cell cycle arrest in human Hep3B cells assessed as accumulation at G2/M phase at 2.5 uM incubated for 48 hrs by flow cytometry analysis (reference value: 8.59 %); format: functional
# Bel7402/5-FU = assay: Antiproliferative activity against human BEL-7402/5-FU cells overexpressing 14-3-3 eta assessed as reduction in cell viability incubated for 72 hrs by MTT assay; format: functional, cell-based
# Hep 3B2 [14] = assay: Induction of apoptosis in human Hep3B cells assessed as upregulation of cleaved caspase-3 expression at 5 to 20 uM measured after 48 hrs by Western blot analysis; format: functional, cell-based; conditions: dose 5-20 µM
# Hep 3B2 [15] = assay: Antiproliferative activity against human Hep3B cells assessed as reduction in cell viability incubated for 72 hrs by MTT assay; format: functional, cell-based
# [16] = target: T1, 14-3-3 protein eta (Homo sapiens) (UniProt Q04917); assay: Inhibition of 14-3-3 eta in human Hep3B cells assessed as reduction in ERK phosphorylation measured after 24 hrs by western blot analysis; format: cell-based; conditions: dose 0.5-5 µM, DDE = dose-dependent effect
# T1 sequence (whole entry): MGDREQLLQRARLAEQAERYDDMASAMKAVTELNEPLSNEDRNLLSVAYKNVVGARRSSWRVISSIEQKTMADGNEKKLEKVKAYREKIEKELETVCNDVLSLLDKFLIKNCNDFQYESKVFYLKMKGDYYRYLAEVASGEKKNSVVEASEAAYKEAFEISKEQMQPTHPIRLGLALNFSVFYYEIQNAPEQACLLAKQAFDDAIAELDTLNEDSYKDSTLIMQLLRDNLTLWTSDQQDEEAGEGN
# Hep 3B2 [17] = assay: Induction of apoptosis in human Hep3B cells assessed as necrotic cells at 2.5 uM measured after 48 hrs by Annexin V/FITC-PI staining based flow cytometry assay (reference value: 0.12%); format: functional
# Hep 3B2 [18] = assay: Induction of apoptosis in human Hep3B cells assessed as early apoptotic cells at 5 uM measured after 48 hrs by Annexin V/FITC-PI staining based flow cytometry assay (reference value: 6.65%); format: functional
# [19] = target: T1, 14-3-3 protein eta (Homo sapiens); assay: Inhibition of 14-3-3 eta in human Hep3B cells assessed as reduction in AKT phosphorylation at S473 residue measured after 24 hrs by western blot analysis; format: cell-based; conditions: dose 0.5-5 µM, DDE = dose-dependent effect
structure (smiles),measurement,setting,value
COc1cccc(CNCc2c(C(=O)O)n(Cc3ccc(C)cc3)c3cc(C(C)C)ccc23)c1,Activity,Hep 3B2 [1],5.79%
same,Activity,Hep 3B2 [2],Dde
same,selectivity ratio at 72 h,hERG [3],5.84
same,Activity,Hep 3B2 [4],2.59%
same,Activity,Hep 3B2 [5],5.02%
same,inhibition,Hep 3B2 [6],Dde
same,Activity,Hep 3B2 [7],3.79%
same,selectivity ratio at 72 h,hERG [8],6.32
same,viability at 2.5 µM,Hep 3B2 [9],86%
same,Activity,Hep 3B2 [10],0.38%
same,selectivity ratio at 72 h,hERG [11],11.8
same,viability at 5 µM,Hep 3B2 [12],79.9%
same,Activity,Hep 3B2 [13],4.47%
same,IC50,Bel7402/5-FU,4.55 µM
same,Activity,Hep 3B2 [14],Active
same,IC50,Hep 3B2 [15],4.07 µM
same,inhibition,[16],Dde
same,Activity,Hep 3B2 [17],0.27%
same,Activity,Hep 3B2 [18],11.22%
same,inhibition,[19],Dde
